The text below walks through data of US5260298A, “Imidazatriazoloquinazoline compounds and their use” (Novo Nordisk A/S, priority 1991, dated 1993).

This assay has as its system benzodiazepine receptors. Description: in vivo displacement of 3H-flunitrazepam binding from benzodiazepine receptors in a living brain. As to conditions: dose which reduces specific binding of 3H-flunitrazepam to benzodiazepine receptors in a living brain to 50% of the control value. The text has this:
The pharmaceutical properties of the compounds of the invention can be illustrated by determining their capability for displacing radioactive labelled flunitrazepam from benzodiazepine receptors.
The displacement activity of the compounds of the invention may be found by determining the ED50 value. The ED50 value represents the dose (mg/kg) of a test substance which causes the specific binding of ^3 H-flunitrazepam to benzodiazepine receptors in a living brain to be reduced to 50% of the control value.
Such an in vivo test is carried out as described in U.S. Pat. No. 4,774,245.
In general terms: Loss of bound radioactivity is the signal in a displacement assay; it reports binding, not function.

By ED50 is commonly meant the midpoint of the dose-response relation. The low end stands for greater potency, the high end for weaker potency.

Each structure is given as a SMILES string.

In the case of `c1ccc2c(c1)c1ncnn1c1c(-c3nc(C4CC4)no3)ncn21` [Compound 3, 5-(3-cyclopropyl-1,2,4-oxadiazol-5-yl)-imidazo[1,5-a]-[1,2,4]triazolo[1,5-c]quinazoline], the ED50 worked out at 0.16 mg/kg.

On to `Clc1cccc2c1c1ncnn1c1c(-c3nc(C4CC4)no3)ncn21` [Compound 5, 12-chloro-5-(3-cyclopropyl-1,2,4-oxadiazol-5-yl)-imidazo[1,5-a][1,2,4]triazolo[1,5-c]quinazoline], for which the ED50 was found to be 0.30 mg/kg.
